As a reminder, the inhibition is the percentage by which the read-out fell short of the control. As a reminder, the IC50 is the point on the concentration scale where inhibition reaches its midpoint.

The test system of one assay is pERK level in H358 cells. Nature of the assay: pERK and ERK protein content assay in H358 cells (ELISA). Type of assay: cell-based. The conditions noted are these: Homo sapiens, NCI-H358, compound 1 μM, 24 h, pERK/ERK ratio compared with DMSO group, read-out: Inhibition rate (%) of pERK level. The method, then:
H358 cells were seeded in a 24-well plate. After one day of growth, a test compound (at a concentration of 1 μM) was added. After 24 h of action of the compound, the cells were lysed, and the cell lysate was transferred to a 96-well ELISA plate. The levels of pERK and ERK in the lysate were measured using an ELISA kit (abcam 176660). The ratio of pERK to ERK was calculated and compared with that of the DMSO group, and the percentage of inhibition of pERK activity by the compound was calculated.
On the technique in general: An ELISA detects its analyte on a solid surface through an enzyme-linked reagent.

For a further assay, the system named is H358 cells. In words: Antiproliferative activity against H358 cells (Cell Titer Glow, ultra-low attachment plate). The settings on record: Homo sapiens, NCI-H358, 72 h, 96-well ultra-low attachment plate, three days after addition of compound, Cell Titer Glow. Type of assay: cell-based. The method, then: 2500 H358 cells were seeded in a 96-well ultra-low attachment plate (corning, 7007). After one day of growth, a serially diluted compound (a maximum concentration of 5 μM, 5-fold dilution, a total of five doses) was added. Three days after the addition of the compound, Cell Titer Glow (Promega, G9681) was added to evaluate pellet growth, and the IC50 value was calculated.

Consider `C=C(F)C(=O)N1CC2(CCN(c3nc(O[C@H]4CCN(C5COC5)C4)nc4c(OCC(F)(F)F)c(-c5c(C)ccc6[nH]ncc56)c(C5CC5)cc34)CC2)C1` [Compound 66], for which, in the assay on pERK level in H358 cells, the inhibition at 1 µM lay in the range of 50 to 90%. The IC50 with H358 cells fell in the range of 300 to 1000 nM.
For the compound `C=CC(=O)N1CC2(CCN(c3nc(N4CC5(COC5)C4)nc4c(OCC(F)(F)F)c(-c5c(C)ccc6[nH]ncc56)c(C5CC5)cc34)CC2)C1` [Compound 67], the inhibition at 1 µM in the assay with pERK level in H358 cells is 50 to 90%. In the assay with H358 cells, this compound registered an IC50 of 300 to 1000 nM.
The corresponding values for `C=C(F)C(=O)N1CC2(CCN(c3nc(N4CC5(COC5)C4)nc4c(OCC(F)(F)F)c(-c5c(C)ccc6[nH]ncc56)c(C5CC5)cc34)CC2)C1` [Compound 68] are 50 to 90% and 300 to 1000 nM.
The corresponding values for `C=CC(=O)N1CC2(CCN(c3nc(N4CC5(CN(C)C5)C4)nc4c(OCC(F)(F)F)c(-c5c(C)ccc6[nH]ncc56)c(C5CC5)cc34)CC2)C1` [Compound 69] are over 90% and under 300 nM.
The corresponding values for `C=C(F)C(=O)N1CC2(CCN(c3nc(N4CC5(CN(C)C5)C4)nc4c(OCC(F)(F)F)c(-c5c(C)ccc6[nH]ncc56)c(C5CC5)cc34)CC2)C1` [Compound 70] are over 90% and 300 to 1000 nM.
For the compound `C=CC(=O)N1CC2(CCN(c3nc(N4CC5(CN(CCOC)C5)C4)nc4c(OCC(F)(F)F)c(-c5c(C)ccc6[nH]ncc56)c(C5CC5)cc34)CC2)C1` [Compound 71], the inhibition at 1 µM in the assay on pERK level in H358 cells is over 90%. The same compound gave an IC50 in the assay on H358 cells of under 300 nM.
For `C=C(F)C(=O)N1CC2(CCN(c3nc(N4CC5(CN(CCOC)C5)C4)nc4c(OCC(F)(F)F)c(-c5c(C)ccc6[nH]ncc56)c(C5CC5)cc34)CC2)C1` [Compound 72], the inhibition at 1 µM with pERK level in H358 cells was over 90%. For the same compound, the IC50 in the assay on H358 cells is under 300 nM.
As to `C=CC(=O)N1CC2(CCN(c3nc(N4CC5(CCN(C)C5)C4)nc4c(OCC(F)(F)F)c(-c5c(C)ccc6[nH]ncc56)c(C5CC5)cc34)CC2)C1` [Compound 73], in the assay with pERK level in H358 cells, the inhibition at 1 µM is over 90%. The compound also registered an IC50 in the assay with H358 cells of under 300 nM.
For the compound `C=C(F)C(=O)N1CC2(CCN(c3nc(N4CC5(CCN(C)C5)C4)nc4c(OCC(F)(F)F)c(-c5c(C)ccc6[nH]ncc56)c(C5CC5)cc34)CC2)C1` [Compound 74], in the assay on pERK level in H358 cells, the inhibition at 1 µM was over 90%. In the assay with H358 cells, this compound had a half-maximal inhibitory concentration (IC50) of under 300 nM.
Consider `C=CC(=O)N1CC2(CCN(c3nc(N4CC5(CCN(CCOC)C5)C4)nc4c(OCC(F)(F)F)c(-c5c(C)ccc6[nH]ncc56)c(C5CC5)cc34)CC2)C1` [Compound 75], for which, in the assay with pERK level in H358 cells, the inhibition at 1 µM is over 90%. This compound displayed an IC50 in the assay on H358 cells of under 300 nM.
The corresponding values for `C=C(F)C(=O)N1CC2(CCN(c3nc(N4CC5(CCN(CCOC)C5)C4)nc4c(OCC(F)(F)F)c(-c5c(C)ccc6[nH]ncc56)c(C5CC5)cc34)CC2)C1` [Compound 76] are over 90% and under 300 nM.
Take `C=CC(=O)N1CC2(CCN(c3nc(N4CC5(CCN(C)CC5)C4)nc4c(OCC(F)(F)F)c(-c5c(C)ccc6[nH]ncc56)c(C5CC5)cc34)CC2)C1` [Compound 77]: the inhibition at 1 µM in the assay on pERK level in H358 cells was 50 to 90%. Besides, the IC50 in the assay with H358 cells was in the range of 300 to 1000 nM.
Take `C=C(F)C(=O)N1CC2(CCN(c3nc(N4CC5(CCN(C)CC5)C4)nc4c(OCC(F)(F)F)c(-c5c(C)ccc6[nH]ncc56)c(C5CC5)cc34)CC2)C1` [Compound 78]: in the assay on pERK level in H358 cells, the inhibition at 1 µM lay in the range of 50 to 90%. The IC50 with H358 cells was 300 to 1000 nM.
For `C=CC(=O)N1CC2(CCN(c3nc(N4CC5(CCN(C6CC6)CC5)C4)nc4c(OCC(F)(F)F)c(-c5c(C)ccc6[nH]ncc56)c(C5CC5)cc34)CC2)C1` [Compound 79], the inhibition at 1 µM in the assay with pERK level in H358 cells was 50 to 90%. In the assay with H358 cells, this compound showed a 50% inhibitory concentration (IC50) of 300 to 1000 nM.
The corresponding values for `C=C(F)C(=O)N1CC2(CCN(c3nc(N4CC5(CCN(C6CC6)CC5)C4)nc4c(OCC(F)(F)F)c(-c5c(C)ccc6[nH]ncc56)c(C5CC5)cc34)CC2)C1` [Compound 80] are 50 to 90% and 300 to 1000 nM.
Take `C=CC(=O)N1CC2(CCN(c3nc(N4CC5(CCN(CC(C)CC)CC5)C4)nc4c(OCC(F)(F)F)c(-c5c(C)ccc6[nH]ncc56)c(C5CC5)cc34)CC2)C1` (stereo not drawn) [Compound 81]: in the assay on pERK level in H358 cells, the inhibition at 1 µM was over 90%. Moreover, the IC50 in the assay with H358 cells is under 300 nM.
Take `C=C(F)C(=O)N1CC2(CCN(c3nc(N4CC5(CCN(CC(C)CC)CC5)C4)nc4c(OCC(F)(F)F)c(-c5c(C)ccc6[nH]ncc56)c(C5CC5)cc34)CC2)C1` (stereo not drawn) [Compound 82]: the inhibition at 1 µM with pERK level in H358 cells was over 90%. Moreover, the IC50 with H358 cells was under 300 nM.
For `C=CC(=O)N1CC2(CCN(c3nc(N4CC5(CCN(CC6CC6)CC5)C4)nc4c(OCC(F)(F)F)c(-c5c(C)ccc6[nH]ncc56)c(C5CC5)cc34)CC2)C1` [Compound 83] the same measures were over 90% and under 300 nM.
Take `C=C(F)C(=O)N1CC2(CCN(c3nc(N4CC5(CCN(CC6CC6)CC5)C4)nc4c(OCC(F)(F)F)c(-c5c(C)ccc6[nH]ncc56)c(C5CC5)cc34)CC2)C1` [Compound 84]: the inhibition at 1 µM with pERK level in H358 cells was over 90%. Besides, the IC50 with H358 cells is under 300 nM.
On to `C=CC(=O)N1CC2(CCN(c3nc(N4CC5(CCN(CC(F)(F)F)CC5)C4)nc4c(OCC(F)(F)F)c(-c5c(C)ccc6[nH]ncc56)c(C5CC5)cc34)CC2)C1` [Compound 85], for which the inhibition at 1 µM with pERK level in H358 cells is over 90%. Also, the IC50 with H358 cells fell in the range of 300 to 1000 nM.
As for `C=C(F)C(=O)N1CC2(CCN(c3nc(N4CC5(CCN(CC(F)(F)F)CC5)C4)nc4c(OCC(F)(F)F)c(-c5c(C)ccc6[nH]ncc56)c(C5CC5)cc34)CC2)C1` [Compound 86], in the assay on pERK level in H358 cells, the inhibition at 1 µM fell in the range of 50 to 90%. In the assay on H358 cells, this compound registered an IC50 of 300 to 1000 nM.
Regarding `C=CC(=O)N1CC2(CCN(c3nc(N4CC5(CCN(CCC#N)CC5)C4)nc4c(OCC(F)(F)F)c(-c5c(C)ccc6[nH]ncc56)c(C5CC5)cc34)CC2)C1` [Compound 87], the inhibition at 1 µM in the assay with pERK level in H358 cells is over 90%. The IC50 with H358 cells was under 300 nM.
The corresponding values for `C=C(F)C(=O)N1CC2(CCN(c3nc(N4CC5(CCN(CCC#N)CC5)C4)nc4c(OCC(F)(F)F)c(-c5c(C)ccc6[nH]ncc56)c(C5CC5)cc34)CC2)C1` [Compound 88] are 50 to 90% and 300 to 1000 nM.
Take `C=CC(=O)N1CC2(CCN(c3nc(N4CC5(CCN(C6COC6)CC5)C4)nc4c(OCC(F)(F)F)c(-c5c(C)ccc6[nH]ncc56)c(C5CC5)cc34)CC2)C1` [Compound 89]: the inhibition at 1 µM in the assay on pERK level in H358 cells is over 90%. Further, the IC50 with H358 cells is under 300 nM.
For `C=C(F)C(=O)N1CC2(CCN(c3nc(N4CC5(CCN(C6COC6)CC5)C4)nc4c(OCC(F)(F)F)c(-c5c(C)ccc6[nH]ncc56)c(C5CC5)cc34)CC2)C1` [Compound 90], in the assay with pERK level in H358 cells, the inhibition at 1 µM was over 90%. Moreover, the half-inhibitory concentration (IC50) with H358 cells was under 300 nM.
Turning to `C=CC(=O)N1CC2(CCN(c3nc(N4CC5(CCN(CCOC)CC5)C4)nc4c(OCC(F)(F)F)c(-c5c(C)ccc6[nH]ncc56)c(C5CC5)cc34)CC2)C1` [Compound 91], the inhibition at 1 µM in the assay with pERK level in H358 cells is over 90%. The same compound showed an IC50 in the assay with H358 cells of under 300 nM.
The corresponding values for `C=C(F)C(=O)N1CC2(CCN(c3nc(N4CC5(CCN(CCOC)CC5)C4)nc4c(OCC(F)(F)F)c(-c5c(C)ccc6[nH]ncc56)c(C5CC5)cc34)CC2)C1` [Compound 92] are over 90% and under 300 nM.
For `C=CC(=O)N1CC2(CCN(c3nc(N4CC5(CCN(CCOCC)CC5)C4)nc4c(OCC(F)(F)F)c(-c5c(C)ccc6[nH]ncc56)c(C5CC5)cc34)CC2)C1` [Compound 93] the same measures were over 90% and under 300 nM.
The corresponding values for `C=C(F)C(=O)N1CC2(CCN(c3nc(N4CC5(CCN(CCOCC)CC5)C4)nc4c(OCC(F)(F)F)c(-c5c(C)ccc6[nH]ncc56)c(C5CC5)cc34)CC2)C1` [Compound 94] are over 90% and under 300 nM.
On to `C=CC(=O)N1CC2(CCN(c3nc(N4CC5(CCN(CCCOC)CC5)C4)nc4c(OCC(F)(F)F)c(-c5c(C)ccc6[nH]ncc56)c(C5CC5)cc34)CC2)C1` [Compound 95], for which the inhibition at 1 µM in the assay with pERK level in H358 cells is over 90%. Moreover, the IC50 in the assay with H358 cells was under 300 nM.
For `C=C(F)C(=O)N1CC2(CCN(c3nc(N4CC5(CCN(CCCOC)CC5)C4)nc4c(OCC(F)(F)F)c(-c5c(C)ccc6[nH]ncc56)c(C5CC5)cc34)CC2)C1` [Compound 96] the same measures were over 90% and under 300 nM.
Regarding `C=CC(=O)N1CC2(CCN(c3nc(N4CCC5(CN(C)C5)C4)nc4c(OCC(F)(F)F)c(-c5c(C)ccc6[nH]ncc56)c(C5CC5)cc34)CC2)C1` [Compound 97], the inhibition at 1 µM with pERK level in H358 cells lay within 50 to 90%. The concentration for half-maximal inhibition (IC50) in the assay with H358 cells lay within 300 to 1000 nM.
Turning to `C=C(F)C(=O)N1CC2(CCN(c3nc(N4CCC5(CN(C)C5)C4)nc4c(OCC(F)(F)F)c(-c5c(C)ccc6[nH]ncc56)c(C5CC5)cc34)CC2)C1` [Compound 98], the inhibition at 1 µM in the assay with pERK level in H358 cells was in the range of 50 to 90%. In the assay on H358 cells, the IC50 was in the range of 300 to 1000 nM.
Take `C=CC(=O)N1CC2(CCN(c3nc(N4CCC5(CN(CCOC)C5)C4)nc4c(OCC(F)(F)F)c(-c5c(C)ccc6[nH]ncc56)c(C5CC5)cc34)CC2)C1` [Compound 99]: the inhibition at 1 µM with pERK level in H358 cells is over 90%. In the assay with H358 cells, this compound gave an IC50 of under 300 nM.
The corresponding values for `C=C(F)C(=O)N1CC2(CCN(c3nc(N4CCC5(CN(CCOC)C5)C4)nc4c(OCC(F)(F)F)c(-c5c(C)ccc6[nH]ncc56)c(C5CC5)cc34)CC2)C1` [Compound 100] are over 90% and under 300 nM.
On to `C=CC(=O)N1CC2(CCN(c3nc(N4CCC5(CCN(CCOC)CC5)C4)nc4c(OCC(F)(F)F)c(-c5c(C)ccc6[nH]ncc56)c(C5CC5)cc34)CC2)C1` [Compound 101], for which the inhibition at 1 µM in the assay with pERK level in H358 cells was over 90%. Besides, the IC50 with H358 cells was under 300 nM.

(Values after US12479843B2, “Spiro ring-containing quinazoline compounds” (WIGEN BIOMEDICINE TECHNOLOGY (SHANGHAI) CO., LTD., priority 2019, dated 2025).)
